The values that follow are results of earlier work, collected in US9540416B2, “Purification process” (GLAXOSMITHKLINE BIOLOGICALS S.A., priority 2012, dated 2017).

For one data set, the system named is mice and other mammals. The conditions noted are these: in mice and other mammals.
The conditions of data set [1]: relative to other Quillaja saponins.

Entries after “also recorded” stand apart in the source; their conditions may differ.

As for QS-17, the adjuvant activity result with mice and other mammals is reported as “significant adjuvant activity”.
As for QS-18, the adjuvant activity result in the data set with mice and other mammals is on record as “significant adjuvant activity”. For the same substance, the toxicity result in data set [1] is “more toxic at lower doses than other Quillaja saponins”.
Consider QS-21, for which the adjuvant activity result in the data set with mice and other mammals was “significant adjuvant activity; also recorded: strong adjuvant activity”. Moreover, in data set [1], the toxicity entry is listed as “low toxicity”.
